Experimental data taken from US10961253B2, “Positive allosteric modulators of the muscarinic acetylcholine receptor M4” (Vanderbilt University, priority 2016, dated 2021).

How the values were obtained:
Human M4 = biological target: T1, Human M4 (Homo sapiens, UniProt P08173); experiment: mAChR M4 cell-based functional assay (calcium flux, potentiation of EC20 acetylcholine response); design: Emax: dose or concentration left out as unconfirmed; conditions: for Emax: CHO-K1
T1 sequence (P08173 1-479): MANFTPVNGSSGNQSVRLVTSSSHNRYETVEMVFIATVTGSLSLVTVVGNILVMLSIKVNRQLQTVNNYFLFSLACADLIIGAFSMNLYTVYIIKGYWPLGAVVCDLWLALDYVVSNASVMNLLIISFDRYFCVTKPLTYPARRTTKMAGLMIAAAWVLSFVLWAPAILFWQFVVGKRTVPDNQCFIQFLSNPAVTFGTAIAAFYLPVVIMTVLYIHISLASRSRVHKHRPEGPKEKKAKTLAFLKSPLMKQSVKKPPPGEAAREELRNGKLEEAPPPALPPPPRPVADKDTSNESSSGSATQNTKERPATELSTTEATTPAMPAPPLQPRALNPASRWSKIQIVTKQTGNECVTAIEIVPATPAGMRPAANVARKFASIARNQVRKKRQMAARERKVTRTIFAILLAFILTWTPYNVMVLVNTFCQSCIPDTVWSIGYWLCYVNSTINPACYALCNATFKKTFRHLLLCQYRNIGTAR

[1] = human, in vivo; cited from earlier work
[2] = similar profiles to known antipsychotic drugs, without causing catalepsy; cited from earlier work
[3] = Alzheimer's disease patients; delusions, suspiciousness, vocal outbursts, hallucinations; cited from earlier work

| Compound | EC50 (Human M4) [µM] | Emax (Human M4) [%] | elevated liver transaminases (hepatotoxicity), share of patients [1] | activity in animal models [2] | effect on psychotic behavioral symptoms [3] |
| --- | --- | --- | --- | --- | --- |
| Cc1cc(C)c2c(n1)sc1c(C3CCOCC3)ncnc12 [Compound 1, 7,9-Dimethyl-4-(tetrahydro-2H-pyran-4-yl)pyrido[3′,2′:4,5]thieno[3,2-d]pyrimidine] | 0.15 | 98.8 |  |  |  |
| C/C=C/c1ncnc2c1sc1nc(C)cc(C)c12 [Compound 2, (E)-7,9-dimethyl-4-(prop-1-en-1-yl)pyrido[3′,2′:4,5]thieno[3,2-d]pyrimidine; 2,2,2-trifluoroacetic acid] | > 10 | 55.3 |  |  |  |
| Cc1cc(C)c2c(n1)sc1c(-c3nccs3)ncnc12 [Compound 3, 7,9-dimethyl-4-(thiazol-2-yl)pyrido[3′,2′:4,5]thieno[3,2-d]pyrimidine; 2,2,2-trifluoroacetic acid] | 3.4 | 62.2 |  |  |  |
| Cc1cc(C)c2c(n1)sc1c(C)ncnc12 [Compound 4, 4,7,9-trimethylpyrido[3′,2′:4,5]thieno[3,2-d]pyrimidine] | 2.8 | 58.1 |  |  |  |
| Cc1cc(C)c2c(n1)sc1c(C3CC3)ncnc12 [Compound 5, 4-cyclopropyl-7,9-dimethylpyrido[3′,2′:4,5]thieno[3,2-d]pyrimidine] | 3.9 | 61.5 |  |  |  |
| CCc1ncnc2c1sc1nc(C)cc(C)c12 [Compound 6, 4-ethyl-7,9-dimethylpyrido[3′,2′:4,5]thieno[3,2-d]pyrimidine] | 2.9 | 59.1 |  |  |  |
| Cc1cc(C)c2c(n1)sc1c(C3CCN(C=O)CC3)ncnc12 [Compound 7, 4-(7,9-dimethylpyrido[3′,2′:4,5]thieno[3,2-d]pyrimidin-4-yl)piperidine-1-carbaldehyde] | 0.48 | 65.6 |  |  |  |
| Cc1cc(C)c2c(n1)sc1c(C3CCCC3)ncnc12 [Compound 8, 4-cyclopentyl-7,9-dimethylpyrido[3′,2′:4,5]thieno[3,2-d]pyrimidine] | > 10 | 70.9 |  |  |  |
| Cc1cc(C)c2c(n1)sc1c(C3CCCCC3)ncnc12 [Compound 9, 4-cyclohexyl-7,9-dimethylpyrido[3′,2′:4,5]thieno[3,2-d]pyrimidine] | 6.8 | 70.8 |  |  |  |
| Cc1cc(C)c2c(n1)sc1c(C3CCNCC3)ncnc12 [Compound 10, 7,9-dimethyl-4-(piperidin-4-yl)pyrido[3′,2′:4,5]thieno[3,2-d]pyrimidine] | 6.1 | 98.8 |  |  |  |
| Cc1cc(C)c2c(n1)sc1c(C3CCN(C(=O)C4CC4)CC3)ncnc12 [Compound 11, cyclopropyl(4-(7,9-dimethylpyrido[3′,2′:4,5]thieno[3,2-d]pyrimidin-4-yl)piperidin-1-yl)methanone] | 0.62 | 43.5 |  |  |  |
| Cc1cc(C)c2c(n1)sc1c(C3CCN(C(=O)C4(F)CC4)CC3)ncnc12 [Compound 12, (4-(7,9-dimethylpyrido[3′,2′:4,5]thieno[3,2-d]pyrimidin-4-yl)piperidin-1-yl)(1-fluorocyclopropyl)methanone] | 0.82 | 62 |  |  |  |
| Cc1cc(C)c2c(n1)sc1c(C3CCN(C(=O)C4(C)CC4)CC3)ncnc12 [Compound 13, (4-(7,9-dimethylpyrido[3′,2′:4,5]thieno[3,2-d]pyrimidin-4-yl)piperidin-1-yl)(1-methylcyclopropyl)methanone] | 0.23 | 63 |  |  |  |
| Cc1cc(C)c2c(n1)sc1c(C3CCN(C(=O)C4CCC4)CC3)ncnc12 [Compound 14, cyclobutyl(4-(7,9-dimethylpyrido[3′,2′:4,5]thieno[3,2-d]pyrimidin-4-yl)piperidin-1-yl)methanone] | 0.52 | 72.3 |  |  |  |
| Cc1cc(C)c2c(n1)sc1c(C3CCN(C(=O)C4CCCO4)CC3)ncnc12 (stereo not shown) [Compound 15, (4-(7,9-dimethylpyrido[3′,2′:4,5]thieno[3,2-d]pyrimidin-4-yl)piperidin-1-yl)(tetrahydrofuran-2-yl)methanone] | 1 | 44 |  |  |  |
| Cc1nnc2sc3c(C4CCCCC4)ncnc3c2c1C [Compound 16, 8-cyclohexyl-3,4-dimethylpyrimido[4′,5′:4,5]thieno[2,3-c]pyridazine] | 0.052 | 72.6 |  |  |  |

| Compound | EC50 (Human M4) [µM] | Emax (Human M4) [%] | elevated liver transaminases (hepatotoxicity), share of patients [1] | activity in animal models [2] | effect on psychotic behavioral symptoms [3] |
| --- | --- | --- | --- | --- | --- |
| Cc1nnc2sc3c(C4CC4)ncnc3c2c1C [Compound 17, 8-cyclopropyl-3,4-dimethylpyrimido[4′,5′:4,5]thieno[2,3-c]pyridazine] | 0.14 | 73.5 |  |  |  |
| Cc1nnc2sc3c(C4CCOCC4)ncnc3c2c1C [Compound 18, 3,4-dimethyl-8-(tetrahydro-2H-pyran-4-yl)pyrimido[4′,5′:4,5]thieno[2,3-c]pyridazine] |  | 74.6 |  |  |  |
| Cc1nnc2sc3c(C4CCNCC4)ncnc3c2c1C [Compound 19, 3,4-dimethyl-8-(piperidin-4-yl)pyrimido[4′,5′:4,5]thieno[2,3-c]pyridazine] | 4.3 | 33.8 |  |  |  |
| Cc1nnc2sc3c(C4CCN(C(=O)C5(F)CC5)CC4)ncnc3c2c1C [Compound 20, (4-(3,4-dimethylpyrimido[4′,5′:4,5]thieno[2,3-c]pyridazin-8-yl)piperidin-1-yl)(1-fluorocyclopropyl)methanone] | 0.49 | 39.1 |  |  |  |
| Cc1cc(C)c2c(n1)sc1c(C3CCN(C4COC4)CC3)ncnc12 [Compound 21, 7,9-dimethyl-4-(1-(oxetan-3-yl)piperidin-4-yl)pyrido[3′,2′:4,5]thieno[3,2-d]pyrimidine] | 1.6 | 41.8 |  |  |  |
| Cc1nnc2sc3c(C4CC(F)(F)C4)ncnc3c2c1C [Compound 22, 8-(3,3-difluorocyclobutyl)-3,4-dimethylpyrimido[4′,5′:4,5]thieno[2,3-c]pyridazine] |  | 72.1 |  |  |  |
| Cc1nnc2sc3c(C4CCCN(C=O)C4)ncnc3c2c1C (stereo not shown) [Compound 23, 3-(3,4-dimethylpyrimido[4′,5′:4,5]thieno[2,3-c]pyridazin-8-yl)piperidine-1-carbaldehyde] | 0.51 | 67 |  |  |  |
| Cc1nnc2sc3c(CCC4CCCCO4)ncnc3c2c1C (stereo not shown) [Compound 24, 3,4-dimethyl-8-(2-(tetrahydro-2H-pyran-2-yl)ethyl)pyrimido[4′,5′:4,5]thieno[2,3-c]pyridazine] | 0.28 | 59.8 |  |  |  |
| Cc1nnc2sc3c(C4CCC(F)(F)CC4)ncnc3c2c1C [Compound 25, 8-(4,4-difluorocyclohexyl)-3,4-dimethylpyrimido[4′,5′:4,5]thieno[2,3-c]pyridazine] | 0.045 | 96.3 |  |  |  |
| Cc1nnc2sc3c(C4CCN(C(=O)C5CC5)CC4)ncnc3c2c1C [Compound 26, cyclopropyl(4-(3,4-dimethylpyrimido[4′,5′:4,5]thieno[2,3-c]pyridazin-8-yl)piperidin-1-yl)methanone] | 0.41 | 36.5 |  |  |  |
| Cc1nnc2sc3c(C4CCN(C(=O)C5CCCO5)CC4)ncnc3c2c1C (stereo not shown) [Compound 27, (4-(3,4-dimethylpyrimido[4′,5′:4,5]thieno[2,3-c]pyridazin-8-yl)piperidin-1-yl)(tetrahydrofuran-2-yl)methanone] | 1.9 | 58.2 |  |  |  |
| Cc1nnc2sc3c(CC(C)(C)C)ncnc3c2c1C [Compound 28, 3,4-dimethyl-8-neopentylpyrimido[4′,5′:4,5]thieno[2,3-c]pyridazine] |  | 75.6 |  |  |  |
| CCCCc1ncnc2c1sc1nnc(C)c(C)c12 [Compound 29, 8-butyl-3,4-dimethylpyrimido[4′,5′:4,5]thieno[2,3-c]pyridazine] | 0.54 | 93.4 |  |  |  |
| Nc1c2c(nc3ccccc13)CCCC2 [tacrine] |  |  | about 30% |  |  |
| CCCCCCOc1nsnc1C1=CCCN(C)C1 [xanomeline] |  |  |  | active in animal models | reduce psychotic behavioral symptoms |
